Patent US11155740B2, “Shale hydration inhibitor and method of use” (M-I L.L.C., priority 2014, dated 2021)

Experiment: OECD 306 marine biodegradation
Excerpt: In the following example, additive formulations were studied for biodegradability in order to quantify the suitability of the formulations for use in environmentally sensitive areas. One measure of sample toxicity is marine biodegradation data as outlined in Organization for Economic Cooperation and Development, Procedure OECD 306 or BODIS. Under OECD 306, the rules that governing offshore chemical use set forth three tests: bioaccumulation, biodegradation and toxicity. In order for a chemical to be used without restriction offshore in the North Sea it must satisfy two of the following three criteria: (1) biodegradation must be greater than 60%, if less than 20% it is automatically marked for substitution; (2) bioaccumulation as measured by octanol/water partitioning coefficient (log Po/w) must be below 3 (or have a molecular weight >700); and toxicity to the most sensitive marine species (often Skeletonema) must be greater than LC50 or EC50 of 10 ppm.
During the biodegradation testing, samples were formulated as show below in Table 4, where polyetheramine is a diamino-functionalized JEFFAMINE™.
Samples were then subjected to biodegradation and results were tabulated as shown below in Table 5. Comparative samples of sodium benzoate and ULTRAHIB™ PLUS, an amine-based shale inhibitor commercially available from M-I L.L.C., were also assayed.

O=C([O-])c1ccccc1.[Na+] [Sodium benzoate]
OECD 306 Biodegradation Day 7 (Day 7): 64% | OECD 306 Biodegradation Day 14 (Day 14): 71% | OECD 306 Biodegradation Day 21 (Day 21): 76% | OECD 306 Biodegradation Day 28 (Day 28): 78%
